What was measured:
Format in all cases: physicochemical
HSA [1] = biological target: T1, HSA (Homo sapiens, UniProt P02768); test: Carbonyl content in HSA after oxidation with AAPH; conditions: oxidation with excess AAPH; compared with medical agent under test without addition
Description: An excess amount of an oxidizing agent, 2,2′-azobis-(2-amidinopropane) dihydrochloride (AAPH) was added to HSA to oxidize the HSA. After the oxidation for a predetermined time, the carbonyl content in HSA was determined.

HSA [2] = biological target: T1, HSA; test: Differential scanning calorimetry (DSC) of HSA solutions: thermal stabilization effect; conditions: 100-μM HSA, 500-μM agent
Description: Each of various medical agents was added to 100-μM HSA ( 1/15 mM phosphate buffer, pH 7.4) and then the following medical agents under test were prepared:
The stabilization effect was evaluated in terms of a thermodynamic viewpoint by calculating a thermal transition temperature (Tm) and a change ΔHcal in enthalpy of transition from a differential scanning calorimetry (DSC) measurement on those medical agents under test (1) to (4). If the thermal transition temperature (Tm) increases, from the thermodynamic viewpoint, it means an increase in stability of the medical agents under test. In addition, if the change ΔHcal in enthalpy of transition increases, it means an increase in stability of the medical agents transition under test.
Those values were analyzed by a DSC thermogram of the HSA solution. Differential scanning calorimetry (DSC method)
For the DSC, measurement was made using the MC-2 differential scanning calorimeter manufactured by MicroCal Co., Ltd. The measuring conditions are shown below.
Albumin content: 100 μM Solvent: 1/15 M phosphate buffer (pH 7.4)
Reversibility of thermal denaturation was confirmed by cooling the albumin solution after first measurement and then heating the albumin solution again. […]

HSA [3] = biological target: T1, HSA; test: Aggregate-inhibition effect under heat with medium-chain fatty acids other than sodium caprylate (electrophoresis); conditions: 5-fold concentration (120 μM) of fatty acid added to 24-μM HSA phosphate buffer (67 mM, pH 7.4)
Description: The measurement samples used were such that 5-fold concentrations (120 μM) of the respective fatty acids were each added to a 24-μM HSA phosphate buffer (67 mM, pH 7.4).

T1 sequence (P02768 25-609): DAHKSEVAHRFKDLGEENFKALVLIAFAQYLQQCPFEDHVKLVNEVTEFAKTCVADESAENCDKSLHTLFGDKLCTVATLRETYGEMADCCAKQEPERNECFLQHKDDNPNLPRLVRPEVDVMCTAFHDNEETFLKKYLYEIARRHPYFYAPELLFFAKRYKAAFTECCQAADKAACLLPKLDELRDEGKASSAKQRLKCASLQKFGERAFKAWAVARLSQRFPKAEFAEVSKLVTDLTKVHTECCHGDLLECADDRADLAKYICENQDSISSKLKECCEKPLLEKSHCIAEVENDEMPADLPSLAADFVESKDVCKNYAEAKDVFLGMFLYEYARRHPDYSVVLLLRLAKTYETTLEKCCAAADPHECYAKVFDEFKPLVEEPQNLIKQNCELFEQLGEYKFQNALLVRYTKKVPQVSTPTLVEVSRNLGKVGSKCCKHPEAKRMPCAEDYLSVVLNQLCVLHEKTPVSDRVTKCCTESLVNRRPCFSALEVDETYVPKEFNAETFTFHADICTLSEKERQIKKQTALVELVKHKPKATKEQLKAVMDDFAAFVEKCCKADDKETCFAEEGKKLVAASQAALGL

carbonyl content in HSA (degree of oxidation) (HSA [1])	change in Tm compared with HSA solution without added agent (in words) (HSA [2])	SMILES	change in ΔHcal compared with HSA solution without added agent (in words) (HSA [2])	aggregate-inhibition effect under heat (HSA [3])
significant decrease in carbonyl content	slight increase in Tm	CSCC[C@H](NC(C)=O)C(=O)O [N-acetyl methionine]	increase in change ΔHcal in enthalpy transition	
		CCCCCC(=O)O [caproic acid]		slightly observed
		CCCCCCC(=O)O [enanthic acid]		slightly observed

Source: patent US7351800B2, “Stabilized albumin preparations” (Nipro Corporation, priority 2002, dated 2008)
